Earlier results on two molecules are cited in patent US12006297B2, “Antibacterial activity of functionalized dihydropyrimidines” (WiSys Technology Foundation, Inc., priority 2021, dated 2024).

Data set [1] deals with DHFR (Staphylococcus aureus, UniProt P0A017).
Data set [2] deals with MRSA. The settings on record: versus oxacillin and erythromycin.
Data set [3] relates to skin infections.

Chain of DHFR (P0A017 whole entry): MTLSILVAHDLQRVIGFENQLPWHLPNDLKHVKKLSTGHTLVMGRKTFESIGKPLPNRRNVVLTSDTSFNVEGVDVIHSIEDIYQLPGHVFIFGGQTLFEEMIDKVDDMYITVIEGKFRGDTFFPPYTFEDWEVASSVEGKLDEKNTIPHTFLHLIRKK

As to `CCOC(=O)C1=C(CC)NC(N)=NC1c1cc(Cl)cc(Cl)c1O` (stereo not shown) [HAK-22, emmacin], the “mechanism of DHFR inhibition” value in data set [1] is given as “unique allosteric uncompetitive mechanism”. Moreover, the “MRSA growth inhibition compared with approved antibiotics” value in data set [2] was “inhibiting the growth of MRSA at concentrations lower than approved antibiotics”.

With `COc1cc(Cc2cnc(N)nc2N)c2c(c1OC)OC(C1CC1)C=C2` (racemic) [Iclaprim], the side effects result in data set [3] (clinical trials) is recorded as “mild to moderate side effects”. Moreover, in data set [3] (control of skin infections, phase 2 and 3 clinical trials), the efficacy versus vancomycin entry is reported as “non-inferiority”.
